# Measured values: patent publication US6703413B2 (Rhode Island Hospital, priority 1999, dated 2004)
# Key:
# [1] = tested on: MDR-transfected glioblastoma cells; experiment: Cytotoxicity in drug resistant glioblastoma cells
# Description: (§1) The neoplastic cell lines used in the survey were standard tumor cell lines, e.g., PA1 human ovarian cell line, SKOV3 human ovarian cell line, HT29 human colon tumor cell line, DU145 human prostate tumor cell line, U251 human glioblastoma cell line, U251-MDR human glioblastoma cell line transfected with DNA encoding MDR, T98G human glioblastoma cell line, SP-1 human leukemia cell line, and Daudi human leukemia cell line.
# (§2) Glioblastoma cells were transfected with a gene encoding multiple drug resistance (MDR).
# [2] = tested on: Untransfected glioblastoma cells; experiment: Cytotoxicity in glioblastoma cells; type: cell-based, human; conditions: 1 μM
# Description: as §1, §2
# human cancer cell lines = experiment: Cytotoxic activity of taurultam in vitro; type: cell-based
# Description: The cytotoxic activity of taurultam was evaluated in vitro using the same human cancer cell lines as described above. […] The data also indicate that the cytotoxic effect is directly proportionate to the number of methylol molecules liberated per molecule of methylol-containing compound
SMILES,cytotoxicity ([1]; 1 μM),resistance of transfected cells ([1]; MDR-transfected versus untransfected),cytotoxicity [2],apoptotic death (human cancer cell lines; cancer cells versus normal control cells),cytotoxic activity relative to taurolidine (human cancer cell lines; of the activity observed with taurolidine)
COc1cccc2c1C(=O)c1c(O)c3c(c(O)c1C2=O)C[C@@](O)(C(=O)CO)C[C@@H]3O[C@H]1C[C@H](N)[C@H](O)[C@H](C)O1 [adriamycin],resistant,100-1000 times,killed,,
O=S1(=O)CCNCN1 [taurultam],,,,induced apoptotic death of cancer cells but not normal control cells,approximately 75%
